Article PMC6321168, “Comparative Study on Excretive Characterization of Main Components in Herb Pair Notoginseng-Safflower and Single Herbs by LC–MS/MS” (Pharmaceutics, 2018)

Assay: Urinary excretion study in rats after oral NS, SF or CNS (LC–MS/MS)
Assay type: in vivo
Conditions: for concentration at 2 h / concentration at 4 h / concentration at 8 h / concentration at 12 h / concentration at 24 h / concentration at 36 h / concentration at 48 h / concentration at 72 h / concentration at 96 h / concentration at 120 h / concentration at 6 h: male, Sprague Dawley, rat, urine, oral; for Accumulative excretion amount / Accumulative excretion percentage / Excretion amount: rat urine
Description: The animal room was set at constant temperature of 20 ± 2 °C with humidity of 50 ± 20% and 12/12 h light/dark cycle.
Eighteen male rats were fasted for 12 h before starting the experiment. The rats were divided into three groups at random (n = 6) and received NS (60 mg/kg), SF (50 mg/kg), and NS (60 mg/kg) + SF (50 mg/kg), respectively, by oral gavage. The rats were placed in separate metabolic cages. The urine samples were collected at 0–2, 2–4, 4–6, 6–8, 8–12, 12–24, 24–36, 36–48, 48–72, 72–96, and 96–120 h. The feces samples were collected at 0–4, 4–8, 8–12, 12–24, 24–36, 36–48, 48–72, 72–96, and 96–120 h. The urine volume was recorded and the dry feces were measured for each collection period. Samples were stored at −80 °C until analysis.
An aliquot of 200 μL urine sample was mixed with 10 μL of IS and evaporated to dryness with a ZLS-2 vacuum centrifugal concentrator (Herexi Co., Ltd., Changsha, Hunan, China). The residue was reconstituted in 100 μL of 50% methanol vortexed for 2 min and centrifuged at 12,000 rpm for 15 min. Finally, a 1 μL aliquot was injected for LC–MS analysis.
Ultra fast liquid chromatography (UFLC) analysis was performed using a Shimadzu UFLC system (DGU-20A3R Degasser; LC-20AD pump; SIL-20AXR Autosampler; CTO-20AC Column Oven) (Nakagyo-Ku, Koyoto, Japan). […] Because of the different endogenous substances in the urine and feces samples, different elution gradients were used to alleviate the matrix effects for the analytes.
The mass spectrometric detection was performed on an ABSciex 4500 Qtrap mass spectrometer (ABSciex, Foster City, CA, USA) equipped with a negative electrospray ionization (ESI) interface using multiple reaction monitoring (MRM). The MS parameters were optimized under the selected ion monitoring conditions as follows: curtain gas, 35 psi; ionspray voltage, 4500 V; turbo gas temperature, 450 °C; GS1, 45 psi; GS2, 45 psi. All data were acquired and analyzed by Analyst software (Versions 1.6.2) from ABSciex.
The accumulative excretion percentage was calculated for each analyte as follows. Excretion at time (t) = [concentration of the analyte (ng/mL) at t] × total urine (or feces) volume (mL) at t. The cumulative excretion up to time t (mg) was expressed as a percent (%) cumulative excretion by dividing by the total amount of the analyte ingested (mg): % Cumulative Excretion = 100 × (Σt excretiont) total ingested.

CC(C)=CCC[C@](C)(O[C@@H]1O[C@H](CO)[C@@H](O)[C@H](O)[C@H]1O)[C@H]1CC[C@]2(C)[C@@H]1[C@H](O)C[C@@H]1[C@@]3(C)CC[C@H](O[C@@H]4O[C@H](CO)[C@@H](O)[C@H](O)[C@H]4O[C@@H]4O[C@H](CO)[C@@H](O)[C@H](O)[C@H]4O)C(C)(C)[C@@H]3CC[C@]12C [ginsenoside Rd]
concentration at 2 h (60 mg/kg, oral NS 60 mg/kg, 2 h): 17 ± 39 ng/mL
concentration at 4 h (60 mg/kg, oral NS 60 mg/kg, 4 h): 33 ± 69 ng/mL
concentration at 8 h (60 mg/kg, oral NS 60 mg/kg, 8 h): 9 ± 12 ng/mL
concentration at 12 h (60 mg/kg, oral NS 60 mg/kg, 12 h): 28 ± 19 ng/mL
concentration at 24 h (60 mg/kg, oral NS 60 mg/kg, 24 h): 34 ± 63 ng/mL
concentration at 36 h (60 mg/kg, oral NS 60 mg/kg, 36 h): 17 ± 33 ng/mL
concentration at 48 h (60 mg/kg, oral NS 60 mg/kg, 48 h): 12 ± 19 ng/mL
concentration at 72 h (60 mg/kg, oral NS 60 mg/kg, 72 h): 12 ± 23 ng/mL
concentration at 96 h (60 mg/kg, oral NS 60 mg/kg, 96 h): 6 ± 10 ng/mL
concentration at 120 h (60 mg/kg, oral NS 60 mg/kg, 120 h): 3 ± 6 ng/mL
concentration at 2 h (oral CNS 110 mg/kg, 2 h): 22 ± 42 ng/mL
concentration at 4 h (oral CNS 110 mg/kg, 4 h): 9 ± 15 ng/mL
concentration at 6 h (oral CNS 110 mg/kg, 6 h): 17 ± 16 ng/mL
concentration at 8 h (oral CNS 110 mg/kg, 8 h): 38 ± 75 ng/mL
concentration at 12 h (oral CNS 110 mg/kg, 12 h): 53 ± 110 ng/mL
concentration at 24 h (oral CNS 110 mg/kg, 24 h): 315 ± 787 ng/mL
concentration at 36 h (oral CNS 110 mg/kg, 36 h): 41 ± 68 ng/mL
concentration at 48 h (oral CNS 110 mg/kg, 48 h): 30 ± 70 ng/mL
concentration at 72 h (oral CNS 110 mg/kg, 72 h): 16 ± 35 ng/mL
concentration at 96 h (oral CNS 110 mg/kg, 96 h): 16 ± 36 ng/mL
concentration at 120 h (oral CNS 110 mg/kg, 120 h): 10 ± 17 ng/mL
concentration at 6 h (oral NS 60 mg/kg, 6 h): 10 ± 18 ng/mL
Accumulative excretion amount (oral CNS 110 mg/kg, 2 h): 0.005 ± 0.005 µg
Accumulative excretion percentage (oral CNS 110 mg/kg, 2 h): 0.001±0.001%
Excretion amount (oral CNS 110 mg/kg, 2 h): 0.005 ± 0.005 µg
Accumulative excretion amount (oral CNS 110 mg/kg, 4 h): 0.009 ± 0.008 µg
Accumulative excretion percentage (oral CNS 110 mg/kg, 4 h): 0.001±0.001%
Excretion amount (oral CNS 110 mg/kg, 4 h): 0.005 ± 0.007 µg
Accumulative excretion amount (oral CNS 110 mg/kg, 6 h): 0.024 ± 0.023 µg
Accumulative excretion percentage (oral CNS 110 mg/kg, 6 h): 0.003±0.003%
Excretion amount (oral CNS 110 mg/kg, 6 h): 0.018 ± 0.018 µg
Accumulative excretion amount (oral CNS 110 mg/kg, 8 h): 0.029 ± 0.024 µg
Accumulative excretion percentage (oral CNS 110 mg/kg, 8 h): 0.004±0.003%
Excretion amount (oral CNS 110 mg/kg, 8 h): 0.010 ± 0.009 µg
Accumulative excretion amount (oral CNS 110 mg/kg, 12 h): 0.045 ± 0.040 µg
Accumulative excretion percentage (oral CNS 110 mg/kg, 12 h): 0.006±0.005%
Excretion amount (oral CNS 110 mg/kg, 12 h): 0.019 ± 0.016 µg
Accumulative excretion amount (oral CNS 110 mg/kg, 24 h): 0.103 ± 0.083 µg
Accumulative excretion percentage (oral CNS 110 mg/kg, 24 h): 0.014±0.011%
Excretion amount (oral CNS 110 mg/kg, 24 h): 0.058 ± 0.066 µg
Accumulative excretion amount (oral CNS 110 mg/kg, 36 h): 0.114 ± 0.086 µg
Accumulative excretion percentage (oral CNS 110 mg/kg, 36 h): 0.015±0.011%
Excretion amount (oral CNS 110 mg/kg, 36 h): 0.011 ± 0.009 µg
Accumulative excretion amount (oral CNS 110 mg/kg, 48 h): 0.135 ± 0.096 µg
Accumulative excretion percentage (oral CNS 110 mg/kg, 48 h): 0.018±0.013%
Excretion amount (oral CNS 110 mg/kg, 48 h): 0.021 ± 0.024 µg
Accumulative excretion amount (oral CNS 110 mg/kg, 72 h): 0.139 ± 0.098 µg
Accumulative excretion percentage (oral CNS 110 mg/kg, 72 h): 0.018±0.013%
Excretion amount (oral CNS 110 mg/kg, 72 h): 0.004 ± 0.004 µg
Accumulative excretion amount (oral CNS 110 mg/kg, 96 h): 0.144 ± 0.100 µg
Accumulative excretion percentage (oral CNS 110 mg/kg, 96 h): 0.019±0.013%
Excretion amount (oral CNS 110 mg/kg, 96 h): 0.005 ± 0.005 µg
Accumulative excretion amount (oral CNS 110 mg/kg, 120 h): 0.148 ± 0.101 µg
Accumulative excretion percentage (oral CNS 110 mg/kg, 120 h): 0.019±0.013%
Excretion amount (oral CNS 110 mg/kg, 120 h): 0.004 ± 0.004 µg
Accumulative excretion amount (oral NS 60 mg/kg, 2 h): 0.022 ± 0.025 µg
Accumulative excretion percentage (oral NS 60 mg/kg, 2 h): 0.002±0.003%
Excretion amount (oral NS 60 mg/kg, 2 h): 0.022 ± 0.025 µg
Accumulative excretion amount (oral NS 60 mg/kg, 4 h): 0.027 ± 0.029 µg
Accumulative excretion percentage (oral NS 60 mg/kg, 4 h): 0.003±0.003%
Excretion amount (oral NS 60 mg/kg, 4 h): 0.008 ± 0.003 µg
Accumulative excretion amount (oral NS 60 mg/kg, 6 h): 0.048 ± 0.039 µg
Accumulative excretion percentage (oral NS 60 mg/kg, 6 h): 0.006±0.004%
Excretion amount (oral NS 60 mg/kg, 6 h): 0.021 ± 0.020 µg
Accumulative excretion amount (oral NS 60 mg/kg, 8 h): 0.097 ± 0.129 µg
Accumulative excretion percentage (oral NS 60 mg/kg, 8 h): 0.011±0.015%
Excretion amount (oral NS 60 mg/kg, 8 h): 0.082 ± 0.123 µg
Accumulative excretion amount (oral NS 60 mg/kg, 12 h): 0.173 ± 0.206 µg
Accumulative excretion percentage (oral NS 60 mg/kg, 12 h): 0.020±0.024%
Excretion amount (oral NS 60 mg/kg, 12 h): 0.076 ± 0.083 µg
Accumulative excretion amount (oral NS 60 mg/kg, 24 h): 0.279 ± 0.198 µg
Accumulative excretion percentage (oral NS 60 mg/kg, 24 h): 0.032±0.023%
Excretion amount (oral NS 60 mg/kg, 24 h): 0.106 ± 0.109 µg
Accumulative excretion amount (oral NS 60 mg/kg, 36 h): 0.311 ± 0.182 µg
Accumulative excretion percentage (oral NS 60 mg/kg, 36 h): 0.036±0.021%
Excretion amount (oral NS 60 mg/kg, 36 h): 0.041 ± 0.012 µg
Accumulative excretion amount (oral NS 60 mg/kg, 48 h): 0.359 ± 0.187 µg
Accumulative excretion percentage (oral NS 60 mg/kg, 48 h): 0.041±0.021%
Excretion amount (oral NS 60 mg/kg, 48 h): 0.048 ± 0.045 µg
Accumulative excretion amount (oral NS 60 mg/kg, 72 h): 0.372 ± 0.200 µg
Accumulative excretion percentage (oral NS 60 mg/kg, 72 h): 0.043±0.023%
Excretion amount (oral NS 60 mg/kg, 72 h): 0.013 ± 0.018 µg
Accumulative excretion amount (oral NS 60 mg/kg, 96 h): 0.379 ± 0.211 µg
Accumulative excretion percentage (oral NS 60 mg/kg, 96 h): 0.044±0.024%
Excretion amount (oral NS 60 mg/kg, 96 h): 0.008 ± 0.013 µg
Accumulative excretion amount (oral NS 60 mg/kg, 120 h): 0.386 ± 0.221 µg
Accumulative excretion percentage (oral NS 60 mg/kg, 120 h): 0.044±0.025%
Excretion amount (oral NS 60 mg/kg, 120 h): 0.007 ± 0.012 µg
